{
  "source": "patent US5035877A",
  "about": "“Non-ionic contrast media from ionic contrast media” (Cook Imaging Corporation, priority 1990, dated 1991)",
  "key": {"Viscosity": {"test": "Viscosity", "type": "physicochemical", "conditions": "for viscosity (in words): compared with existing compounds", "experimental": "(§1) Compounds VIII and XVI were tested from stability, solubility, osmolality, viscosity and systemic toxicity.\n(§2) *All at 300 mg I/ml concentration and 37° C. Injection rates 1"}, "Rats (Lewis)": {"tested_on": "Rats (Lewis)", "test": "Estimated i.v. LD50, rats (systemic toxicity)", "type": "in vivo", "conditions": "300 mg I/ml, 37° C., injection rate 5 ml/min", "experimental": "as §1, §2\n(§3) ml/min in mice and 5 ml/min in rats.\n(§4) °Ref. Salvesen, S. in Acta Radiol. Suppl. 362, p. 73, 1980"}, "Osmolality": {"test": "Osmolality", "type": "physicochemical", "conditions": "for osmolality (in words): compared with existing compounds", "experimental": "as §1, §2"}, "Stability": {"test": "Stability", "type": "physicochemical", "conditions": "compared with existing compounds", "experimental": "as §1"}, "Solubility": {"test": "Solubility", "type": "physicochemical", "conditions": "compared with existing compounds", "experimental": "as §1"}, "[1]": {"test": "Systemic toxicity (conventional tests, in words)", "type": "in vivo", "conditions": "compared with existing compounds", "experimental": "as §1"}, "Mice (CD-1)": {"tested_on": "Mice (CD-1)", "test": "Estimated i.v. LD50, mice (systemic toxicity)", "type": "in vivo", "conditions": "300 mg I/ml, 37° C., injection rate 1 ml/min", "experimental": "as §1, §2, §3, §4"}, "[2]": {"conditions": "must be dispensed lyophilized and reconstituted prior to use; cited from earlier work"}},
  "data": [
    {"smiles": "CNC(=O)c1c(I)c(C(=O)N[C@@H](CO)[C@H](O)CO)c(I)c(N(CC(O)CO)C(C)=O)c1I", "note": "(relative stereo) [XVI, 5-(N-2,3-Dihydroxypropylacetamido)-2,4,6-triiodo-N-methyl-N'-(1,3,4-trihydroxy-erythro-but-2-yl) isophthalamide]", "values": [
      {"measurement": "viscosity (in words)", "setting": "Viscosity", "result": "comparable properties in the other categories"},
      {"measurement": "Estimated i.v. LD50", "setting": "Rats (Lewis)", "result": "13.5-14 gI/kg"},
      {"measurement": "osmolality (in words)", "setting": "Osmolality", "result": "substantially reduced osmolality"},
      {"measurement": "stability (in words)", "setting": "Stability", "result": "comparable properties in the other categories"},
      {"measurement": "solubility (in words)", "setting": "Solubility", "result": "comparable properties in the other categories"},
      {"measurement": "systemic toxicity (in words)", "setting": "[1]", "result": "comparable properties in the other categories"},
      {"measurement": "Estimated i.v. LD50", "setting": "Mice (CD-1)", "result": "12-13 gI/kg"}
    ]},
    {"smiles": "CC(=O)N(CC(O)CO)c1c(I)c(C(=O)NCC(O)CO)c(I)c(C(=O)NCC(O)CO)c1I", "note": "(centres unmarked) [Iohexol]", "values": [
      {"measurement": "Estimated i.v. LD50", "setting": "Rats (Lewis)", "result": "13.5-15 gI/kg"},
      {"measurement": "Estimated i.v. LD50", "setting": "Mice (CD-1)", "result": "16-17 gI/kg"}
    ]},
    {"smiles": "C[C@H](O)C(=O)Nc1c(I)c(C(=O)NC(CO)CO)c(I)c(C(=O)NC(CO)CO)c1I", "note": "[Iopamidol]", "values": [
      {"measurement": "Estimated i.v. LD50", "setting": "Rats (Lewis)", "result": "12.2-13 gI/kg"},
      {"measurement": "Estimated i.v. LD50", "setting": "Mice (CD-1)", "result": "17-18 gI/kg"}
    ]},
    {"smiles": "COCC(=O)Nc1c(I)c(C(=O)NCC(O)CO)c(I)c(C(=O)N(C)CC(O)CO)c1I", "note": "(centres unmarked) [Iopromide]", "values": [
      {"measurement": "Estimated i.v. LD50", "setting": "Rats (Lewis)", "result": "10-11.5 gI/kg"},
      {"measurement": "Estimated i.v. LD50", "setting": "Mice (CD-1)", "result": "11.5-13.0 gI/kg"}
    ]},
    {"smiles": "CC(=O)Nc1c(I)c(C(=O)N[C@H]2C(O)O[C@H](CO)[C@@H](O)[C@@H]2O)c(I)c(N(C)C(C)=O)c1I", "note": "(some centres unmarked) [Metrizamide]", "values": [
      {"measurement": "hydrolytic stability (in words)", "setting": "[2]", "result": "hydrolytic instability"}
    ]},
    {"smiles": "CC(=O)N(CC(O)CO)c1c(I)c(C(=O)NCCO)c(I)c(C(=O)NCC(O)CO)c1I", "note": "(centres unmarked) [VIII, 5-(N-2,3-dihydroxypropylacetamido)-2,4,6-triiodo-N-(2,3-dihydroxypropyl)-N'-(2-hydroxyethyl)-isophthalamide]", "values": [
      {"measurement": "Viscosity", "setting": "Viscosity; 300 mg I/ml, 37° C.", "result": 5.3, "unit": "cps"},
      {"measurement": "viscosity (in words)", "setting": "Viscosity", "result": "comparable properties in the other categories"},
      {"measurement": "Estimated i.v. LD50", "setting": "Rats (Lewis)", "result": "14-16.5 gI/kg"},
      {"measurement": "Osmolality", "setting": "Osmolality; 300 mg I/ml, 37° C.", "result": 560, "unit": "mOsm/kg"},
      {"measurement": "osmolality (in words)", "setting": "Osmolality", "result": "substantially reduced osmolality"},
      {"measurement": "stability (in words)", "setting": "Stability", "result": "comparable properties in the other categories"},
      {"measurement": "solubility (in words)", "setting": "Solubility", "result": "comparable properties in the other categories"},
      {"measurement": "systemic toxicity (in words)", "setting": "[1]", "result": "comparable properties in the other categories"},
      {"measurement": "Estimated i.v. LD50", "setting": "Mice (CD-1)", "result": "16-17 gI/kg"}
    ]}
  ]
}
